From article doi:10.1101/2024.08.13.607785v1 (biorxiv, 2024)
Like-named read-outs stand apart in the source and are kept apart here. Values belong to the molecule of their own block, whether it stands above or below them.

Assays:
Assay in all cases: biochemical
Design in all cases: species or system human cell line lysate
[1] = target: Atypical kinase COQ8A, mitochondrial ; COQ8A ; Q8NI60 (Homo sapiens, UniProt Q8NI60)
[2] = target: Beta-adrenergic receptor kinase 1 ; GRK2 ; P25098 (Homo sapiens, UniProt P25098)
[3] = target: Casein kinase I isoform gamma-2 ; CSNK1G2 ; P78368 (Homo sapiens, UniProt P78368)
[4] = target: Casein kinase II subunit alpha' ; CSNK2A2 ; P19784 (Homo sapiens, UniProt P19784)
[5] = target: Dual specificity protein kinase CLK1 ; CLK1 ; P49759 (Homo sapiens, UniProt P49759)
[6] = target: Isoform 2 of Casein kinase I isoform delta ; CSNK1D ; P48730-2 (Homo sapiens, UniProt P48730)
[7] = target: Isoform Beta-II of Protein kinase C beta type ; PRKCB ; P05771-2 (Homo sapiens, UniProt P05771)
[8] = target: Isoform IB of Tyrosine-protein kinase ABL1 ; ABL1 ; P00519-2 (Homo sapiens, UniProt P00519)
[9] = target: Mitogen-activated protein kinase 9 ; MAPK9 ; P45984 (Homo sapiens, UniProt P45984)
[10] = target: RAC-alpha serine/threonine-protein kinase ; AKT1 ; P31749 (Homo sapiens, UniProt P31749)
[11] = target: Ribosomal protein S6 kinase alpha-3 ; RPS6KA3 ; P51812 (Homo sapiens, UniProt P51812)
[12] = target: Ribosomal protein S6 kinase beta-1 ; RPS6KB1 ; P23443 (Homo sapiens, UniProt P23443)
[13] = target: Serine-protein kinase ATM ; ATM ; Q13315 (Homo sapiens, UniProt Q13315)
[14] = target: Serine/threonine-protein kinase MARK2 ; MARK2 ; Q7KZI7 (Homo sapiens, UniProt Q7KZI7)
[15] = target: Serine/threonine-protein kinase N2 ; PKN2 ; Q16513 (Homo sapiens, UniProt Q16513)
[16] = target: Serine/threonine-protein kinase PAK 4 ; PAK4 ; O96013 (Homo sapiens, UniProt O96013)
[17] = target: Tyrosine-protein kinase JAK2 ; JAK2 ; O60674 (Homo sapiens, UniProt O60674)
[18] = target: Tyrosine-protein kinase Mer ; MERTK ; Q12866 (Homo sapiens, UniProt Q12866)
[19] = target: T1, Tyrosine-protein kinase Tec ; TEC ; P42680 (Homo sapiens, UniProt P42680)
T1 sequence (P42680 1-631): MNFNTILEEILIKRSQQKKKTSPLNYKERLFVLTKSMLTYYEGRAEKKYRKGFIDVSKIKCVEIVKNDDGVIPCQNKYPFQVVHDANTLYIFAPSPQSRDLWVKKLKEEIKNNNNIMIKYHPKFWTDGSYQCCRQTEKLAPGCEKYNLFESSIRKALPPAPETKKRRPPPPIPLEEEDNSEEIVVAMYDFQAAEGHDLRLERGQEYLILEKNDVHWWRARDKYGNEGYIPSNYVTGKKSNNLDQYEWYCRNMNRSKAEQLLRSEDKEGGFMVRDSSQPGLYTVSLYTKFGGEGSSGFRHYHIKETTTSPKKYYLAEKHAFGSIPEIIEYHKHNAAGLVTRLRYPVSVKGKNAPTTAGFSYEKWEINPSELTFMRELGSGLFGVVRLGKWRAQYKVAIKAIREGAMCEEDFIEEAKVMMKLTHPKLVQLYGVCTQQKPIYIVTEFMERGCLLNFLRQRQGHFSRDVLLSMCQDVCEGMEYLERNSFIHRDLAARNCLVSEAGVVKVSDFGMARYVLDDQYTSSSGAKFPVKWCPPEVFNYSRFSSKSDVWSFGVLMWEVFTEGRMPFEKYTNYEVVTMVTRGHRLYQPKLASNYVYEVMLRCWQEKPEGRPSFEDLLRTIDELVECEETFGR

[20] = read-out: BAY-1143572 (10 µM) / %Intensity relative to DMSO
[21] = read-out: BAY-1251152 (10 µM) / %Intensity relative to DMSO

Chain of Serine/threonine-protein kinase MARK2 ; MARK2 ; Q7KZI7 (Q7KZI7 whole entry, one chain of several): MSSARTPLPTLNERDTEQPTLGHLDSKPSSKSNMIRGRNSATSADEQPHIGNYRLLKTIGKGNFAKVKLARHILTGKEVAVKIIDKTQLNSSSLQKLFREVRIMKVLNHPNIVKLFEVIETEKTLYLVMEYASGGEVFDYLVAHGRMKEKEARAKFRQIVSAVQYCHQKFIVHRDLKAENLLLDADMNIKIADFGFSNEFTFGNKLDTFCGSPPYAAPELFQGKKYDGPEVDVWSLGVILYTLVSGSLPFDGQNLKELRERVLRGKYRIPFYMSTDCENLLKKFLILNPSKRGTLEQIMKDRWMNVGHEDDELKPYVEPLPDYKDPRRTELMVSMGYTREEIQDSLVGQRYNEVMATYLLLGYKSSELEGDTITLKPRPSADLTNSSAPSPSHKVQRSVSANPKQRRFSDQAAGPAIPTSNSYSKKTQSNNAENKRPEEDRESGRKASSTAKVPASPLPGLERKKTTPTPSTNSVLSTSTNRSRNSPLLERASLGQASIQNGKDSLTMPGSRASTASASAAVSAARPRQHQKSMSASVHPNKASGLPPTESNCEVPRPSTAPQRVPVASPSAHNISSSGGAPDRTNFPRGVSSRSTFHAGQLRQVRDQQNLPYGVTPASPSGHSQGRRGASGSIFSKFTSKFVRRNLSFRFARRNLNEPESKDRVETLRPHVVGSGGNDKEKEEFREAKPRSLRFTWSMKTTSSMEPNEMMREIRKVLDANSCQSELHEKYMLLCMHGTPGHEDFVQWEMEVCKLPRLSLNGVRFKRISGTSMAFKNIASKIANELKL
Chain of Casein kinase I isoform gamma-2 ; CSNK1G2 ; P78368 (P78368 whole entry, canonical isoform): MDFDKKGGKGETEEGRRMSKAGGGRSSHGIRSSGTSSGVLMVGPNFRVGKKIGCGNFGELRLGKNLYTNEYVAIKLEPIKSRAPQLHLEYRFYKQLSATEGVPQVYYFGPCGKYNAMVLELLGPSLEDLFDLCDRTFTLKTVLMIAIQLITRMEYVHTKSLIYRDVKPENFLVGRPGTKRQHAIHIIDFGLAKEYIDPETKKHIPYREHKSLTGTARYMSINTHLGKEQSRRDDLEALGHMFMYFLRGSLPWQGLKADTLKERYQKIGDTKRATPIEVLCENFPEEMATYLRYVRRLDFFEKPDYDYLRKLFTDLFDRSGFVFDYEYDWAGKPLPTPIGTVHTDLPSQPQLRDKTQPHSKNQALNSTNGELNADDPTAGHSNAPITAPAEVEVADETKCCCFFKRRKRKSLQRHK
Chain of Ribosomal protein S6 kinase beta-1 ; RPS6KB1 ; P23443 (P23443 whole entry): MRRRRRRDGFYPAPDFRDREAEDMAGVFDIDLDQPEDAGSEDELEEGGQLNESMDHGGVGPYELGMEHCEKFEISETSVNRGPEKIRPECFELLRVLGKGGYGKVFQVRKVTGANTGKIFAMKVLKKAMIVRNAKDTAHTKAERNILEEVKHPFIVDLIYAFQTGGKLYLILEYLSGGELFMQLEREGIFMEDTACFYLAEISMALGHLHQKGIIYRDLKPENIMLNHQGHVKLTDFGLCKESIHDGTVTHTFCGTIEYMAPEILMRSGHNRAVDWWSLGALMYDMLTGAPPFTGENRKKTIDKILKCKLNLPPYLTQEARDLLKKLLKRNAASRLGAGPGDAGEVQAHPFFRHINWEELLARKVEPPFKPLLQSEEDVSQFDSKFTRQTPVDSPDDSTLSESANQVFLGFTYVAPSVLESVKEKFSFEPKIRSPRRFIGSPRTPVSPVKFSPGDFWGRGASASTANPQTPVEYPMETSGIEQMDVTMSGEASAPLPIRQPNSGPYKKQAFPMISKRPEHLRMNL
Chain of Serine/threonine-protein kinase PAK 4 ; PAK4 ; O96013 (O96013 whole entry, one chain of several): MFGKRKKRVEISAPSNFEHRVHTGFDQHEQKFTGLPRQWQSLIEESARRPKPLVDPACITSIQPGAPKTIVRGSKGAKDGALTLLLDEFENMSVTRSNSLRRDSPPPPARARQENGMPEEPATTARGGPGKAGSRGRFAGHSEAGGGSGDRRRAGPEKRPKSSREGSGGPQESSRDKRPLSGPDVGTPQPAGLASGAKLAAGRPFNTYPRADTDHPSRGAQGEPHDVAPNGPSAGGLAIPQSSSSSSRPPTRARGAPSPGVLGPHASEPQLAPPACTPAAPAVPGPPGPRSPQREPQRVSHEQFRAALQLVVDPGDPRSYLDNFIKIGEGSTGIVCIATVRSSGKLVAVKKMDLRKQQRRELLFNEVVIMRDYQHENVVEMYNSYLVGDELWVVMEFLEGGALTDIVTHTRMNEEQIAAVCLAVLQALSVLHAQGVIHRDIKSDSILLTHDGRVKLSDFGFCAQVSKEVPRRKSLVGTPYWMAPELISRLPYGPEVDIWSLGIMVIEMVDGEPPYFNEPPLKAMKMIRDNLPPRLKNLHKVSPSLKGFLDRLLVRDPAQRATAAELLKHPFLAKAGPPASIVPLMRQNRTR
Chain of Tyrosine-protein kinase JAK2 ; JAK2 ; O60674 (O60674 whole entry): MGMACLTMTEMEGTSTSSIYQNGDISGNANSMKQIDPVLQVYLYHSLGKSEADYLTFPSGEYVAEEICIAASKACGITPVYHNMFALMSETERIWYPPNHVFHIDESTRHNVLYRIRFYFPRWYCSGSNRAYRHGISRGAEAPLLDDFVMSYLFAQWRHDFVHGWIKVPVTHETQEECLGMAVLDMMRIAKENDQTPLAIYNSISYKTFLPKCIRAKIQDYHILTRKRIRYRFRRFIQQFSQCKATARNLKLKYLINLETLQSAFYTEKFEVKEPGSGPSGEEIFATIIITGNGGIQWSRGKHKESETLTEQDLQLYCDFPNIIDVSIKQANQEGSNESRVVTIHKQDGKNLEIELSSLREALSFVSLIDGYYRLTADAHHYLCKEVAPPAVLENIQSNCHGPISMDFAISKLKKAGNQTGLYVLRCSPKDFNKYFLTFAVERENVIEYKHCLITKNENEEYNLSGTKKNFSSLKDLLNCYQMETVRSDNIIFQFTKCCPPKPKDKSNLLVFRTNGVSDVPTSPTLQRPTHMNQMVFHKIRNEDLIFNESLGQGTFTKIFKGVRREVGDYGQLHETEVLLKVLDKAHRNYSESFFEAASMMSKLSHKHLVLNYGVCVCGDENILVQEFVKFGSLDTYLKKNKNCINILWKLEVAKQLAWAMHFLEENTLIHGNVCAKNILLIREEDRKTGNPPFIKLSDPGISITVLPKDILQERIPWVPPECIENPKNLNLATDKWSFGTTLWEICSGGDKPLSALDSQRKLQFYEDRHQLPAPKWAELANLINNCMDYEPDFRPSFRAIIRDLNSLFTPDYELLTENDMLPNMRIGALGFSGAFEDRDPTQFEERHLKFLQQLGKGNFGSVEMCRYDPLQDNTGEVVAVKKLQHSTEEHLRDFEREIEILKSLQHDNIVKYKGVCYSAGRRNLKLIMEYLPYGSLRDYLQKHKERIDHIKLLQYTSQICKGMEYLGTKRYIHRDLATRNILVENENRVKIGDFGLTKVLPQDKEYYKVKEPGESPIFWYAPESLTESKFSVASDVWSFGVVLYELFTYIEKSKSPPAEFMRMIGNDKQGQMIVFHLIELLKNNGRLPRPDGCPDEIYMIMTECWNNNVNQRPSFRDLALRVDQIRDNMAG
Chain of Isoform 2 of Casein kinase I isoform delta ; CSNK1D ; P48730-2 (P48730 whole entry, canonical isoform): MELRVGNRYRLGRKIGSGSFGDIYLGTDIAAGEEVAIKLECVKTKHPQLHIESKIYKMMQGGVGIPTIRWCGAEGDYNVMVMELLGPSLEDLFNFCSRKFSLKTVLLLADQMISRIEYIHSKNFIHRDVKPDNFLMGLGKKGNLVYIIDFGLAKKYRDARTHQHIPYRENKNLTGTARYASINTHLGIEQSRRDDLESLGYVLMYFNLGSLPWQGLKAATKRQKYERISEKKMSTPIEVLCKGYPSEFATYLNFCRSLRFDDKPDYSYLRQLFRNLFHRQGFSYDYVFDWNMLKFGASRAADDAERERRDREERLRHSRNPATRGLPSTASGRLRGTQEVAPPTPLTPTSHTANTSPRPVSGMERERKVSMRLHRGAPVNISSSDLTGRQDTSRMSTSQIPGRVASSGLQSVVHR
Chain of Serine/threonine-protein kinase N2 ; PKN2 ; Q16513 (Q16513 whole entry, one chain of several): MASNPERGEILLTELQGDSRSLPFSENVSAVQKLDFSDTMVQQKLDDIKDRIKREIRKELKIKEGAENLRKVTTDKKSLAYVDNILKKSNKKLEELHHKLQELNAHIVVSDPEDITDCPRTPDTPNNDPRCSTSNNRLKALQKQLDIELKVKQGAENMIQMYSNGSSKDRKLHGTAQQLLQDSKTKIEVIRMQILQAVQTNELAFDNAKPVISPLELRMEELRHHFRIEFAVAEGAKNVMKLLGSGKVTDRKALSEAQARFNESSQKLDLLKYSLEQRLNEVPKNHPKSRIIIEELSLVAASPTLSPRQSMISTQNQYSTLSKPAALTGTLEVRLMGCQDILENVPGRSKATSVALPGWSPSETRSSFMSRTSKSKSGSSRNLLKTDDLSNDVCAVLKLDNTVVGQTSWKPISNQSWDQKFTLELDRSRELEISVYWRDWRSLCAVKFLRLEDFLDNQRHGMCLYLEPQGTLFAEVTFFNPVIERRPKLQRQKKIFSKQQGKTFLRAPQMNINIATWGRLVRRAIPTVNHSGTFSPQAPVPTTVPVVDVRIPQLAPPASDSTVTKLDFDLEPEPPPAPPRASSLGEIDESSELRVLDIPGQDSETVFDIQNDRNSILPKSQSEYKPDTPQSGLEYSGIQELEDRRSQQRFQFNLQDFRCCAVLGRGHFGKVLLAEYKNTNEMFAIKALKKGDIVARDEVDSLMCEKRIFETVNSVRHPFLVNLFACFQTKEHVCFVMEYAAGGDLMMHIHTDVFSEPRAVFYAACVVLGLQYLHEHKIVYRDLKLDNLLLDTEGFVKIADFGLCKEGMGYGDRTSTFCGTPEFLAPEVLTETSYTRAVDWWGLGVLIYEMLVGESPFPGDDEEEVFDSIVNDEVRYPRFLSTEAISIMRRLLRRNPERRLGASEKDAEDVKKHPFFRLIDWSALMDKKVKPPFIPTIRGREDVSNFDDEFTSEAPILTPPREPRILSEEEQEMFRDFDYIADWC

- remaining activity at 10 µM [1, 20]: 106%
- remaining activity at 10 µM [2, 20]: 142%
- remaining activity at 10 µM [3, 20]: 137%
- remaining activity at 10 µM [4, 20]: 114%
- remaining activity at 10 µM [5, 20]: 116%
- remaining activity at 10 µM [6, 20]: 108%
- remaining activity at 10 µM [7, 20]: 121%
- remaining activity at 10 µM [8, 20]: 67.4%
- remaining activity at 10 µM [9, 20]: 178%
- remaining activity at 10 µM [10, 20]: 128%
- remaining activity at 10 µM [11, 20]: 115%
- remaining activity at 10 µM [12, 20]: 137%
- remaining activity at 10 µM [13, 20]: 110%
- remaining activity at 10 µM [14, 20]: 110%
- remaining activity at 10 µM [15, 20]: 222%
- remaining activity at 10 µM [16, 20]: 105%
- remaining activity at 10 µM [17, 20]: 95.1%
- remaining activity at 10 µM [18, 20]: 86.5%
- remaining activity at 10 µM [19, 20]: 89.2%
SMILES: COc1cc(F)ccc1-c1ncnc(Nc2cccc(C[S@](C)(=N)=O)c2)n1 [BAY-1143572]

- remaining activity at 10 µM [1, 21]: 113%
- remaining activity at 10 µM [2, 21]: 131%
- remaining activity at 10 µM [3, 21]: 131%
- remaining activity at 10 µM [4, 21]: 98.2%
- remaining activity at 10 µM [5, 21]: 104%
- remaining activity at 10 µM [6, 21]: 105%
- remaining activity at 10 µM [7, 21]: 119%
- remaining activity at 10 µM [8, 21]: 83.2%
- remaining activity at 10 µM [9, 21]: 142%
- remaining activity at 10 µM [10, 21]: 125%
- remaining activity at 10 µM [11, 21]: 107%
- remaining activity at 10 µM [12, 21]: 129%
- remaining activity at 10 µM [13, 21]: 115%
- remaining activity at 10 µM [14, 21]: 103%
- remaining activity at 10 µM [15, 21]: 222%
- remaining activity at 10 µM [16, 21]: 110%
- remaining activity at 10 µM [17, 21]: 95.9%
- remaining activity at 10 µM [18, 21]: 52.5%
- remaining activity at 10 µM [19, 21]: 104%
SMILES: COc1cc(F)ccc1-c1cc(Nc2cc(CS(C)(=N)=O)ccn2)ncc1F (centres unmarked) [BAY-1251152]
